Measurements from paper PMC9230136 (Pharmaceutics, 2022).
“Also recorded” adds a separate entry of the source.

Columns and labels:
A549 = test: Antiproliferative assay (resazurin, 72 h); assay type: cell-based, human; settings: Table 2, mean ± SE
Outline: (§1)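 Resazurin read-out (3–4 h, fluorescence ex 535 nm/em 600 nm) after 72 h of compound exposure at 37 °C, 5% CO2. Media: RPMI-1640 for HT-29, DMEM for the other three lines, each plus 10% FBS. Top concentration 10 μM with fivefold steps, in triplicate.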

HT-29 = test: Antiproliferative assay (resazurin, 72 h); assay type: cell-based, human; settings: Table 2; mean ± SE; 72 h
Outline: as §1

HeLa = test: Antiproliferative assay (resazurin, 72 h); assay type: cell-based, human; settings: Table 2, mean ± SE
Outline: as §1

Jurkat = test: Antiproliferative assay (resazurin, 72 h); assay type: cell-based, human; settings: Table 2; mean ± SE; 72 h
Outline: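 Jurkat T-cell leukemia cells, grown in RPMI-1640 containing 10% fetal bovine serum, 115 units/mL penicillin G and 115 μg/mL streptomycin, were plated in 96-well plates. After 24 h they received serial 5-fold dilutions of test compounds starting at 10 μM, in triplicate, and were kept 72 h at 37 °C in 5% CO2.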

MDA-MB-231 = test: Antiproliferative assay (resazurin, 72 h); assay type: cell-based, human; settings: Table 2; mean ± SE; 72 h
Outline: as §1

HeLa cells [1] = test: Apoptosis by annexin-V-FITC/PI flow cytometry; assay type: cell-based, human
Procedure: Surface exposure of phosphatidylserine on apoptotic cells was measured by flow cytometry with a Beckman Coulter Cytomics FC500 (Beckman Coulter Italia, Milano, Italy) by adding annexin-V conjugated to fluorescein isothiocyanate (FITC) to cells according to the manufacturer’s instructions (Annexin-V Fluos, Roche Diagnostic, Monza, Italy). Simultaneously, the cells were stained with PI. Excitation was set at 488 nm, and the emission filters were at 525 and 585 nm, respectively, for FITC and PI.

HeLa cells [2] = test: Western blot of cellular protein expression; assay type: cell-based, human; settings: 24 h
Procedure: Following growth for various times in the presence of 8q, HeLa cells were harvested by centrifugation and washed twice in 0 °C PBS. Cells were lysed with 0.1% (v/v) Triton X-100 containing RNase A at 0 °C, and supernatants were obtained by centrifuging the lysed cells at 15,000× g for 10 min at 4 °C. The protein content of the solutions was measured, and 10 μg of protein from each sample was subjected to sodium dodecyl sulfate polyacrylamide gel electrophoresis. Proteins were transferred by electroblotting to a poly(vinylidene difluoride) Hybond-P membrane from GE Healthcare. Membranes were treated with 5% bovine serum albumin in PBS containing 0.1% Tween 20 overnight at 4 °C. The membranes were then exposed for 2 h at room temperature to primary antibodies directed against cyclin B cdc25c, cdc2 (Y15), BCL-2, cleaved poly (ADP-ribose) polymerase (PARP), MCL-1, XIAP and vinculin (all from Cell Signaling), and subsequently for 1 h to peroxidase-labeled secondary antibodies. The membranes were visualized using ECL select (GE Healthcare), and images were acquired using a Uvitec-Alliance imaging system. Densitometric analysis of Western blots was performed by ImageJ software and the results were normalized to β-actin and represented as fold change with respect to untreated controls.

HeLa cells [3] = test: Scratch-migration assay; assay type: cell-based, human; settings: 0.625–10 nM; 24 and 48 h
Procedure: HeLa cells were plated at 100,000 cells per well in a 6-well plate and incubated at 37 °C for 24 h. The day after seeding, cells were nearly confluent, so the sheet of cells was gently wounded through the horizontal and vertical axes using a micropipette tip. Cells were rinsed twice with PBS solution to remove cell debris; next, they were treated with different sublethal concentrations of compound 8q. At different time points, four images per experimental condition were captured using a stereomicroscope at 10X magnification. The distance between the two edges of the wound area was quantified with ImageJ software.

[4] = tested on: HeLa cells in zebrafish Tg(fli1: EGFP) embryos; test: Zebrafish xenograft model with HeLa cells; assay type: in vivo, Danio rerio; settings: 145 or 290 nM, 24 h, 34 °C; p 0.04 and 0.01
Procedure: For the transplantation, zebrafish Tg(fli1: EGFP) embryos expressing enhanced green fluorescent protein (EGFP) specifically in vascular endothelial cells, were kept at 28 °C and manually dechorionated. Before microinjections into zebrafish embryos, HeLa cancer cells were stained with VybrantTM DiI Cell-Labeling Solution (Invitrogen, ThermoFisher, Carlsbad, CA, USA) according to the manufacturer’s protocol, in order to visualize and track them inside the larvae. Stained cells (1.0 × 10^6 cells) were suspended in 20 μL of PBS 1X obtaining a final concentration of 50 cells/nL; next, the cellular suspension was loaded into borosilicate glass capillary needles (OD/ID: 1.00/0.75 mm, World Precision Instruments, Sarasota, FL, USA). […]
Initially (time 0 h pre-treatment) and after one day post-treatment, the tumors were photographed with a Zeiss AxioObserver microscope for live-cell imaging. HeLa cell fluorescence was recorded to investigate reduction, death and migration of tumor cells. Using Fiji ImageJ software, the reduction in cancer cell fluorescence, related to the effectiveness of the anticancer drug treatments, was calculated and plotted. The fluorescence of at least 20 identically treated embryos was compared to vehicle control set to 100%.

Cc1cc(Nc2ccc(F)cc2)n2nc(NCCCc3ccccc3)nc2n1 [Compound 8q]
IC50 (A549): 130 ± 90 nM | IC50 (HT-29): 49 ± 10 nM | IC50 (HeLa): 29 nM | IC50 (Jurkat): 150 ± 20 nM | IC50 (MDA-MB-231): 62 ± 30 nM | concentration from which apoptosis was induced (HeLa cells [1]): 50 nM | BCL-2 and MCL-1 expression (HeLa cells [2]; 50 nM): partial reduction in BCL-2 and MCL-1 expression | caspase-3 activation and PARP cleavage (HeLa cells [2]; 50 nM): appearance of the cleaved fragment of the executioner caspase-3 and the consequent cleavage of its substrate PARP | ATR (Ser428) and CHK1 (S345) phosphorylation (HeLa cells [2]): appreciable increase in ATR phosphorylation (Ser428) and of its downstream target CHK1 (S345) | cdc2 phosphorylation (Tyr15) (HeLa cells [2]): significant reduction in cdc2 phosphorylation (Tyr15) | cell migration / wound closure (HeLa cells [3]): significantly arrested the movement of cells, preventing wound closure | HeLa tumor cells / fluorescence in zebrafish xenograft [4]: significantly inhibited HeLa cell growth in zebrafish embryos; also recorded: number of circulating tumor cells was significantly reduced; also recorded: fluorescence intensity decreased in a dose-dependent manner; also recorded: reduced HeLa cell growth in xenografts implanted in zebrafish embryos
